Measured values as given in ChEMBL document CHEMBL1201862, “PubChem BioAssay data set” (2004).
Active and inactive are the calls of the source.

Experiments:
[1] = molecular target: Galanin receptor type 3 (Homo sapiens, UniProt O60755); assay: Fluorescence-based cell-based primary high throughput dose response assay to identify antagonists of the Galanin Receptor 3 (GalR3).; assay type: functional
[2] = cells; assay type: functional, cell-based; details: HEK-CNG
[3] = molecular target: Long-chain-fatty-acid--AMP ligase FadD28 (Mycobacterium tuberculosis, UniProt P9WQ59); assay: Fluorescence polarization aasay to screen for inhibitors that compete for the binding of FadD28 to a bisubstrate Measured in Biochemical System Using Plate Reader - 2147-01_Inhibitor_Dose_CherryPick_Activity.; assay type: functional, Mycobacterium tuberculosis H37Rv
Long-chain-fatty-acid--AMP ligase FadD28, sequence (P9WQ59 whole entry): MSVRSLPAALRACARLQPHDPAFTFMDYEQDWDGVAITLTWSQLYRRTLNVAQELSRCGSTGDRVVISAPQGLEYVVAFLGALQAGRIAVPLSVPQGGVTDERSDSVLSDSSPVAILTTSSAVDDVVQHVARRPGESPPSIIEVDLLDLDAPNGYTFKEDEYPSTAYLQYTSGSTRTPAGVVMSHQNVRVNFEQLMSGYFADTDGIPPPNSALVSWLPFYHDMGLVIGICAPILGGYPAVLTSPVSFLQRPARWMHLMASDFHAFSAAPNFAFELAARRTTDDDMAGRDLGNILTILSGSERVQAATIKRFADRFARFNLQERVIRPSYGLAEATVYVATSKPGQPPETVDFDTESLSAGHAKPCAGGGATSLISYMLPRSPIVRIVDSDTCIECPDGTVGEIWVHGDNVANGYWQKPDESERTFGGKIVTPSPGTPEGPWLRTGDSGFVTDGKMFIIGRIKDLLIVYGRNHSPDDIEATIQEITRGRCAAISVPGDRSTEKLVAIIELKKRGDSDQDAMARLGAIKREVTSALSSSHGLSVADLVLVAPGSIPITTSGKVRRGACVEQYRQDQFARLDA

[4] = molecular target: Beta-galactosidase (Escherichia coli, UniProt Q8VNN2); assay: Dose response counterscreen for EBI2 assay utilizing the enzyme, b-galactosidase.; assay type: functional
Beta-galactosidase, sequence (Q8VNN2 whole entry): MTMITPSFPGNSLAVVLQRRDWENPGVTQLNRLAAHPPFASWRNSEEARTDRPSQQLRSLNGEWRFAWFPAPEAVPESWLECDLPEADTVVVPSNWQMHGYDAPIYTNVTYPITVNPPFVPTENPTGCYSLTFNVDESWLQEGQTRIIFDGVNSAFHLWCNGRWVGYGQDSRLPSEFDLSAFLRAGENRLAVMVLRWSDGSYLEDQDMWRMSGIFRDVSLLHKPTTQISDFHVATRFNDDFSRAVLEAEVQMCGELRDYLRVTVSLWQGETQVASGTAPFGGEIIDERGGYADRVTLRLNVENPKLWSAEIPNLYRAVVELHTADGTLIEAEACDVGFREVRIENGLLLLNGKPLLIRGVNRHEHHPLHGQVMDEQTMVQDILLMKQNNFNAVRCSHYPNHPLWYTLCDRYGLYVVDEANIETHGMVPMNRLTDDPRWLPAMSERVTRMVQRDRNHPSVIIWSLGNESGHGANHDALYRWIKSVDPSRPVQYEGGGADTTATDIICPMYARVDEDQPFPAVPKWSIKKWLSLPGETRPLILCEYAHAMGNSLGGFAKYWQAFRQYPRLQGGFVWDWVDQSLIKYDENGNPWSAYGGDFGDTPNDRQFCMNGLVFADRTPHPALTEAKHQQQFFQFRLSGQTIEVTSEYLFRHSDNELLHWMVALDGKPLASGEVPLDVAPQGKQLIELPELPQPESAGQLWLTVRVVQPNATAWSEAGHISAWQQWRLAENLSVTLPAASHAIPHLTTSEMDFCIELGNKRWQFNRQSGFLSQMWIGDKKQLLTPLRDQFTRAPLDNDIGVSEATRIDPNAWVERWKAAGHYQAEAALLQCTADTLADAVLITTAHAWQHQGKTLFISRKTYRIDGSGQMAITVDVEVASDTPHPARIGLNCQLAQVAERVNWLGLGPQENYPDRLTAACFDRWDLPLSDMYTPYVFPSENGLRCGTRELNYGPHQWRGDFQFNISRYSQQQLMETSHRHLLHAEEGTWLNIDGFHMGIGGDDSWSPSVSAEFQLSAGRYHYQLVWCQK

[5] = Counterscreen for […] of the human trace amine associated receptor 1 (TAAR1): Fluorescence-based cell-based high throughput dose response assay to identify nonselective Ga16 agonists.; assay type: functional
[6] = molecular target: T1, Trace amine-associated receptor 1 (Homo sapiens, UniProt Q96RJ0); assay: Fluorescence-based cell-based high throughput dose response assay to identify antagonists of the human trace amine associated receptor 1 (TAAR1).; assay type: functional
T1 sequence (Q96RJ0 whole entry): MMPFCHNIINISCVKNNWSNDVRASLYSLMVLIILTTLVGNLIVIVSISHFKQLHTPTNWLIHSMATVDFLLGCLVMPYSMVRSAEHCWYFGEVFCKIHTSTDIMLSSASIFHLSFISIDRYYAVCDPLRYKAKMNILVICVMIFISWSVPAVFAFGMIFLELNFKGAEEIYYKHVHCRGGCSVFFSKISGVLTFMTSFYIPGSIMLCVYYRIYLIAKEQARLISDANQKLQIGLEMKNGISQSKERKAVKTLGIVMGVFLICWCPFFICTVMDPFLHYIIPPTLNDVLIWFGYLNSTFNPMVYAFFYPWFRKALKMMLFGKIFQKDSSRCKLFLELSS

[7] = Counterscreen for antagonists of the human trace amine associated receptor 1 (hTAAR1): Fluorescence-based cell-based high throughput dose response assay to identify nonselective Ga16 antagonists.; assay type: functional
[8] = molecular target: T1, Trace amine-associated receptor 1; assay: Counterscreen for antagonists of the human trace amine associated receptor 1 (hTAAR1): Fluorescence-based cell-based high throughput dose response assay to identify TAAR1 Agonists.; assay type: functional
[9] = test system: HEK293; assay: inhibition of NOD1-driven NF-kB reporter – cell-based, luminescence, uHTS, primary screen (AID 1578); assay type: functional; details: Homo sapiens
[10] = test system: HEK293; assay: cells; assay type: functional, cell-based; details: Homo sapiens
[11] = test system: HEK293; assay: cells; assay type: functional, cell-based; details: Homo sapiens; remark: listed apart in the source
[12] = test system: HEK293; assay: NOD2 signaling inhibitors in MDP-stimulated cells, cell-based, uHTS, luminescence (AID 2001); assay type: functional; details: Homo sapiens
[13] = molecular target: ADP-ribosylation factor GTPase-activating protein 1 (Rattus norvegicus, UniProt Q62848); assay: Fluorescence polarization-based biochemical high throughput dose response screening assay to identify inhibitors of ADP-ribosylation factor GTPase activating protein 1 (ARFGAP1).; assay type: functional
ADP-ribosylation factor GTPase-activating protein 1, sequence (Q62848 whole entry, the tested form may be a part): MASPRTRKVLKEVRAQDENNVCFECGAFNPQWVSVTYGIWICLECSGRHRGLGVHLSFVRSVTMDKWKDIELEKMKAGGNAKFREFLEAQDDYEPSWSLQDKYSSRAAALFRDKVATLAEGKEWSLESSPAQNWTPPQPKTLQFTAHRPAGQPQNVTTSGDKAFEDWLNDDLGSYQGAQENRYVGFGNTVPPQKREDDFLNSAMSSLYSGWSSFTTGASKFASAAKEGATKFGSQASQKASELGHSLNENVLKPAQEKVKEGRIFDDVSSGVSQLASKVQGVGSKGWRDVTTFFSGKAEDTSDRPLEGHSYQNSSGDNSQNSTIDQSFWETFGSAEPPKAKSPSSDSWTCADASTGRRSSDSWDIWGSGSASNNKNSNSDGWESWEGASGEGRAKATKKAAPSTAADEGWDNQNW

[14] = molecular target: Arf-GAP with SH3 domain, ANK repeat and PH domain-containing protein 1 (Homo sapiens, UniProt Q9ULH1); assay type: functional;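 also: biochemical fluorescence polarization dose–response screen measuring inhibition of ASAP1; ASAP1 GAP domain stimulating GTP hydrolysis by truncated human ARF1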
[15] = molecular target: T2, Beta-2 adrenergic receptor (Homo sapiens, UniProt P07550); assay: Dose response for HTS for Beta-2AR agonists via FAP method from Powderset1.; assay type: functional
T2 sequence (P07550 whole entry): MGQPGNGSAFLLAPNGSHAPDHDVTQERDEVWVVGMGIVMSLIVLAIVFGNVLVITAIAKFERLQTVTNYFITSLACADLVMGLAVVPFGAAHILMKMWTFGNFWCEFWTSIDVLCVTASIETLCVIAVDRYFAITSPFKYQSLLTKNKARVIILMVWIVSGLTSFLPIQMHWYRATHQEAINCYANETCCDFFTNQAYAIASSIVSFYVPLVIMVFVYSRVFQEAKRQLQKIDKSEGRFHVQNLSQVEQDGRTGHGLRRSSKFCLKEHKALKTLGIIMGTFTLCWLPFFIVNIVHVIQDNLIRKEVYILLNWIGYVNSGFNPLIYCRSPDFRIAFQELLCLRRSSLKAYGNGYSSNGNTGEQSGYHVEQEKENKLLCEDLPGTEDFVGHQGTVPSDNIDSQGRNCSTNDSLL

[16] = molecular target: T2, Beta-2 adrenergic receptor; assay: ADRB2 activation measured by internalization – cell-based, FAP fluorogen, flow cytometry, cherry pick 1, dose response (AID 588763); assay type: functional
[17] = molecular target: Mu-type opioid receptor (Homo sapiens, UniProt P35372); assay type: functional, cell-based;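 also: U2OS cells with beta-arrestin recruitment to OPRM1 by beta-gal complementation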
Mu-type opioid receptor, sequence (P35372 whole entry): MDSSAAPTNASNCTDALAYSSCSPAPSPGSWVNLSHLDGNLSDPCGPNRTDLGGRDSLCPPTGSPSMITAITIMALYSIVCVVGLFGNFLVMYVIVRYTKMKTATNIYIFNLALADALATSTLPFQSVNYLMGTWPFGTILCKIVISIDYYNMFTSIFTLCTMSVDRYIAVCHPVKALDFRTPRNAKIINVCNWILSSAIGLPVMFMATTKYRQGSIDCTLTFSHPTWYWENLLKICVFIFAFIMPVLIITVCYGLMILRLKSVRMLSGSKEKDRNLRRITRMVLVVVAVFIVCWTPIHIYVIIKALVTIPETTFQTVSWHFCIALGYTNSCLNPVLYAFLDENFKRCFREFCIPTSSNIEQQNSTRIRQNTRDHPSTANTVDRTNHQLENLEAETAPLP

[18] = molecular target: 5-hydroxytryptamine receptor 2A (Mus musculus, UniProt P35363); assay type: functional, cell-based;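 also: CHO-K1 cells with tagged receptor and beta-arrestin; agonist potency measured as compound-induced activation of the receptor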
5-hydroxytryptamine receptor 2A, sequence (P35363 whole entry): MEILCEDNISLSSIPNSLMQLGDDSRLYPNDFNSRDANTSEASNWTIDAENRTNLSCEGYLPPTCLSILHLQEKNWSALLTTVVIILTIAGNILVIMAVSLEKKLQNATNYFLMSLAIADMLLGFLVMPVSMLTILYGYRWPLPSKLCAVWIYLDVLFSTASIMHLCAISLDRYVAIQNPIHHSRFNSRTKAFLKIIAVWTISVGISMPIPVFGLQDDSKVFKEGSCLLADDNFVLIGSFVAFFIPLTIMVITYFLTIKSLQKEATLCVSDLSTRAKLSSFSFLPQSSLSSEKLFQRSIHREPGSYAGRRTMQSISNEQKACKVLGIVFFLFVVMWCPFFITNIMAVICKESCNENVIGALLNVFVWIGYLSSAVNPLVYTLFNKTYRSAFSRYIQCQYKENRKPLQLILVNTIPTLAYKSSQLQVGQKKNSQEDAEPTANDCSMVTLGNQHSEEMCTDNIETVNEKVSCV

[19] = molecular target: Induced myeloid leukemia cell differentiation protein Mcl-1 (Homo sapiens, UniProt Q07820); assay type: functional
Induced myeloid leukemia cell differentiation protein Mcl-1, sequence (Q07820 whole entry): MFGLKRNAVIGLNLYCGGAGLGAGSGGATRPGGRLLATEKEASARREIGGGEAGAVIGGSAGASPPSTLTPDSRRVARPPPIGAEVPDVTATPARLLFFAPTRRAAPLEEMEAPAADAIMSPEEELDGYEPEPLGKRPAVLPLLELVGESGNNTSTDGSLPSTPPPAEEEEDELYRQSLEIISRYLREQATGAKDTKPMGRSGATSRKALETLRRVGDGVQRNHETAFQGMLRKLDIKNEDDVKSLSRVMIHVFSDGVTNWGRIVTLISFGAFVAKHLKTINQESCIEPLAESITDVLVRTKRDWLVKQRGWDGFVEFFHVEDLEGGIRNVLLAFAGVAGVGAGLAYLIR

[20] = general mammalian cell viability loss – inhibitor set, cherry-pick, set 2, cytotoxicity control for miR-122 modulator project, dose response (AID 720697); assay type: functional, cell-based
[21] = molecular target: Matrix metalloproteinase-14 (Homo sapiens, UniProt P50281); assay: Dose Response confirmation of uHTS hits for a small molecule inhibitors of MT1-MMP activation in a fluorescence assay set 1.; assay type: functional
[22] = molecular target: Alkaline phosphatase, placental type (Homo sapiens, UniProt P05187); assay: human placental alkaline phosphatase inhibition – biochemical, luminescence, confirmation (AID 1512); assay type: functional
Alkaline phosphatase, placental type, sequence (P05187 whole entry): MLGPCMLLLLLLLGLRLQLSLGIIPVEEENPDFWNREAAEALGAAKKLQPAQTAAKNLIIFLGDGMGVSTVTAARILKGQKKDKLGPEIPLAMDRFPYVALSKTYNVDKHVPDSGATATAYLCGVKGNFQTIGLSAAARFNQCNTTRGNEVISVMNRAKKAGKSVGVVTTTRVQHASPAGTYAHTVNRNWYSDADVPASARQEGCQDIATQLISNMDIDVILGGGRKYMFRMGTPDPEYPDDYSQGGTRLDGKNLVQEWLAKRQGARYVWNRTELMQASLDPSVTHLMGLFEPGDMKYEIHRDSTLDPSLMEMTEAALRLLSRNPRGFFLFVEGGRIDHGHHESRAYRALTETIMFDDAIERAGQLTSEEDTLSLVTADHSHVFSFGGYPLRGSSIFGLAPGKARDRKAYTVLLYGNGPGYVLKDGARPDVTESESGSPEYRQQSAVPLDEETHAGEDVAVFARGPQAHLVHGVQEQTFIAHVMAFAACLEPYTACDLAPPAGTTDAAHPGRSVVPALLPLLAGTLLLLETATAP

[23] = HGIII-sPLA2 enzyme inhibition potency – biochemical, QFRET, IC50, dose response (AID 743457);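 also: green fluorescence rise as the enzyme cleaves BODIPY PC-A2 in liposomes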
[24] = viability of PTEN-deleted HCT116 cells – cell-based, HCT116 PTEN knockout, dose response (AID 1047); assay type: functional;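 also: HCT116 colon tumor cells with PTEN knocked out; cells exposed to compound for 60 hours before readout; potency for loss of cell viability measured by luminescence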
[25] = viability of HCT116 lacking mutant beta-catenin – cell-based, human colon tumor, dose response (AID 1045); assay type: functional;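 also: HCT116 colon tumor cells with beta catenin knocked out; cells exposed to compound for 60 hours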
[26] = molecular target: T3, Mannose-6-phosphate isomerase (Homo sapiens, UniProt P34949); assay: MPI inhibition at elevated mannose 6-phosphate – biochemical, fluorescence intensity, high mannose 6-phosphate, primary screen (AID 1220)
T3 sequence (P34949 whole entry): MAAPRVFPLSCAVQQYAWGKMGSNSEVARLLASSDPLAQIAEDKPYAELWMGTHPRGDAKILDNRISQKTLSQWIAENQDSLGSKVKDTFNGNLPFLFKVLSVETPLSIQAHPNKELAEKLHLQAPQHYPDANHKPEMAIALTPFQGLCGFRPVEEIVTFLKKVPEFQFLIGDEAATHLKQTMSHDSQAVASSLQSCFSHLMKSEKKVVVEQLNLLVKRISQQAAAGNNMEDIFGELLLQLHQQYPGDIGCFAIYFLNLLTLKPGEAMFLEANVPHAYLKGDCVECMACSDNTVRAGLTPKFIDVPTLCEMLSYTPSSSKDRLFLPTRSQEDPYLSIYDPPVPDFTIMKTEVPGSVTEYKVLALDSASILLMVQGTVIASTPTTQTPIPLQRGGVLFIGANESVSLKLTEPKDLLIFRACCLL

[27] = molecular target: Heat shock protein HSP 90-alpha (Homo sapiens, UniProt P07900); assay type: functional, organism-based
[28] = test system: INS1; assay: INS-1E survival protection against cytokine death – cell-based, luminescence, retest, dose response (AID 449756); assay type: functional; details: Rattus norvegicus, INS1;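 also: cell death triggered by IL-1 beta plus TNF-alpha plus IFN-gamma mixture; protective hits raise ATP signal compared with cytokine alone wells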
[29] = Fluorescence-based cell-based high throughput dose response assay for inhibitors of the interaction of nucleotide-binding oligomerization domain containing 2 (NOD2) and the receptor-interacting serine-threonine kinase 2 (RIPK2).; assay type: functional; details: Homo sapiens
[30] = molecular target: Beta Lactamase (Pseudomonas aeruginosa, UniProt Q932Y6); assay: BLA reporter interference, concentration series – BLA reporter cells, FRET fluorescence, artefact control for NOD2-RIPK2 interaction inhibitor project, dose response (AID 651552); assay type: functional, cell-based
Beta Lactamase, sequence (Q932Y6 whole entry): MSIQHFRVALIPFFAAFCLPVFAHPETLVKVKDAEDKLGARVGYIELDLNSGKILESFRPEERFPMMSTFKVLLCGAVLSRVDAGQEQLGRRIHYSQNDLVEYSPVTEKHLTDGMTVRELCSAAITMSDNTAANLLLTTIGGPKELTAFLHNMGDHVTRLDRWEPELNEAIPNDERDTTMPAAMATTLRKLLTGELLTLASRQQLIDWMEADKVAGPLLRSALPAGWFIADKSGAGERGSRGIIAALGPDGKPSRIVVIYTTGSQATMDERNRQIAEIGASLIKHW

[31] = test system: Vero; assay: viability loss in Vero cells – cell-based, plate reader, cherry-pick samples, cytotoxicity control, dose response (AID 687020); assay type: functional; details: Chlorocebus sabaeus
[32] = molecular target: T4, Methionyl-tRNA synthetase, putative (Trypanosoma brucei brucei, UniProt Q38C91); assay type: functional, Trypanosoma brucei brucei strain 927/4 GUTat10.1
T4 sequence (Q38C91 whole entry): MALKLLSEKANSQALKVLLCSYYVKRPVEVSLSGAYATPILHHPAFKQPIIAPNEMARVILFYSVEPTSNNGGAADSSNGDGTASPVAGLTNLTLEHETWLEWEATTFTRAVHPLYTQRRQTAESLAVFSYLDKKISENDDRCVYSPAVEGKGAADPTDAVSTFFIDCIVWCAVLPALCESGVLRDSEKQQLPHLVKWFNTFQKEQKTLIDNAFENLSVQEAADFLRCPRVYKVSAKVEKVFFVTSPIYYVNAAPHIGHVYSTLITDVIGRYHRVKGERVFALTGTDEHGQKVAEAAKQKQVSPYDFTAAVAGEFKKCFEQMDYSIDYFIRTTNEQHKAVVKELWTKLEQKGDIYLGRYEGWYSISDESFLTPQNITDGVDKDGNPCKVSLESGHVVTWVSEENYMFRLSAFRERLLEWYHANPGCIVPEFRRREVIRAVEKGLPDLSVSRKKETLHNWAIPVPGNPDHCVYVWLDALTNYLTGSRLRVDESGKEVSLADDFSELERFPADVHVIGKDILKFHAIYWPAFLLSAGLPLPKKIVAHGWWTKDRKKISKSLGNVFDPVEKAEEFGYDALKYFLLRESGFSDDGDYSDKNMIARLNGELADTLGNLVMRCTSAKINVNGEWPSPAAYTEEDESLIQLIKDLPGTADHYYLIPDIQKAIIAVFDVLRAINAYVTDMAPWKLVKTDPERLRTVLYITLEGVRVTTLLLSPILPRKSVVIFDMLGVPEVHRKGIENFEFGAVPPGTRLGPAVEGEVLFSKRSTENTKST

[33] = Counterscreen for inhibitors of Trypanosoma brucei methionyl tRNA synthetase (MetRS): Luminescence-based cell-based high throughput dose response assay to identify compounds that are cytotoxic to Jurkat human T lymphocyte cells.; assay type: functional
[34] = molecular target: T4, Methionyl-tRNA synthetase, putative; assay type: functional, Trypanosoma brucei brucei strain 927/4 GUTat10.1; remark: listed apart in the source
[35] = Late stage counterscreen for inhibitors of Trypanosoma brucei methionyl tRNA synthetase (MetRS): Luminescence-based cell-based high throughput dose response assay to identify compounds that are cytotoxic to Jurkat human T lymphocyte cells.; assay type: functional
[36] = molecular target: Potassium channel subfamily K member 9 (Homo sapiens, UniProt Q9NPC2); assay: KCNK9 flux blockade, concentration-response – cell-based, FluxOR thallium flux, selectivity assay for TASK1 inhibitor project, SAR follow-up (AID 652211); assay type: functional;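 also: potency is for inhibitors of the channel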
Potassium channel subfamily K member 9, sequence (Q9NPC2 whole entry): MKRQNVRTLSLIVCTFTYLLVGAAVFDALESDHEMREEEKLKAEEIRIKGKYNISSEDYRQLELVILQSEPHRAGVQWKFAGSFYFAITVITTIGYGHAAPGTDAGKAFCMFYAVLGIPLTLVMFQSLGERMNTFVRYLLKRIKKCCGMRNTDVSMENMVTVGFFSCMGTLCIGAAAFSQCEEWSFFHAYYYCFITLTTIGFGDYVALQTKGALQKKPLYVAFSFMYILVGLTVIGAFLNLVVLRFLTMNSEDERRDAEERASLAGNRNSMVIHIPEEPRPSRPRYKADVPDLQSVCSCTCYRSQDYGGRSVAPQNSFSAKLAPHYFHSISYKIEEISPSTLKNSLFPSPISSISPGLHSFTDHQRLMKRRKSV

[37] = viability loss in HepG2 hepatoma cells – cell-based, cherry-picks, set 5, cytotoxicity control, dose response (AID 1053118); assay type: functional

CNc1ccccc1C(C)(C)c1cc(-c2ccc(F)cc2)no1
IC50 [1]: 3.74 µM (active) | EC50 [2]: > 29.9 µM (inactive)

CCc1cccc2c(C(=O)COC(=O)c3cnc(C)cn3)c[nH]c12
AC50 [3]: 20 µM (active)

S=C(NCC1CCCO1)N1CCN(c2nc(-c3ccc(Cl)cc3)cs2)CC1 (configuration not stated)
IC50 [4]: > 80 µM (inactive)

CCOC(=O)C1CCCN(c2c(C(=O)c3ccccc3)cnc3ccc(OC)cc23)C1 (configuration not stated)
EC50 [5]: > 29.9 µM (inactive) | IC50 [6]: 4.06 µM (active) | IC50 [7]: > 29.9 µM (inactive) | EC50 [8]: 11.6 µM (inactive)

Clc1cccc(Cl)c1CONC=Nc1ncnc2sccc12
EC50 [9]: > 20 µM (inactive) | IC50 [10]: 7.79 µM (active) | IC50 [11]: > 20 µM (inactive) | IC50 [12]: 8.22 µM (active) | IC50 [13]: 30.3 µM (inactive) | IC50 [14]: 12.3 µM (inactive)

CC(C)(C)c1ccc(OCC(=O)Nc2ccc(-c3nc4cccnc4o3)cc2)cc1
EC50 [15]: 0.0199 µM (active) | EC50 [16]: 0.0672 µM (active)

OCC1(Cc2ccc(Cl)cc2)CCN(CCCc2ccccc2)CC1
EC50 [17]: 92.5 µM (inactive) | EC50 [18]: 76.1 µM (inactive)

CN1CCN(c2ccc(Cl)cc2NC(=O)c2ccc(S(=O)(=O)N3CCCCCC3)cc2)CC1
IC50 [19]: 3.55 µM (active) | AC50 [20]: 5.58 µM (active)

CNc1c(C(=O)O)ccc2c1C(=O)c1ccccc1C2=O
IC50 [21]: 18.5 µM (active)

COc1ccccc1N=C(S)NNC(=O)c1nn(C)c(C)c1Br
IC50 [22]: > 100 µM (inactive) | IC50 [23]: > 122 µM (inactive)

CC1=C(C)/C(=N\OS(=O)(=O)c2ccc(C)cc2)C=CC1=O
EC50 [24]: 35.2 µM (active) | EC50 [25]: 37.6 µM (active) | IC50 [26]: 5.11 µM (active) | AC50 [27]: 1.61 µM (active) | AC50 [28]: 2.15 µM (active) | IC50 [29]: 3.42 µM (active) | IC50 [30]: 31 µM (inactive)

Cc1cc(C)n2c(Nc3c(C)cccc3C)c(CCc3ccccc3)nc2n1
AC50 [31]: 33.3 µM (active)

C[C@H](O)[C@@H]1C(=O)N2CCc3c([nH]c4ccccc34)[C@@H]2C[C@@H]1N(C)Cc1ccc2c(c1)OCO2
IC50 [32]: 1.34 µM (active) | IC50 [33]: 83.3 µM (inactive) | IC50 [34]: 0.672 µM (active) | IC50 [35]: > 83.3 µM (inactive)

O=C(Nc1cccc(NC(=O)c2ccccn2)c1)c1ccccc1
IC50 [36]: 5.37 µM (active)

N#C[C@H]1[C@@H](c2ccccc2C2=CCCCC2)[C@H](CO)N1S(=O)(=O)c1ccccc1
AC50 [37]: > 47 µM (inactive)
